Data as given in patent US20210169959A1, “TERMINALIA FERDINANDIANA EXTRACT AND PRODUCTS CONTAINING EXTRACT OF TERMINALIA FERDINANDIANA FOR ANTIMICROBIAL OR ANTIBACTERIAL APPLICATIONS” (RISING PHOENIX INDUSTRIES PTY LTD, priority 2017, published 2021).
≈ marks a conversion by molar mass, not a printed value. Where “and” joins values, the source holds several entries; their conditions need not be identical. Equal entries are not always repeated. Where two headings read alike, the source gives them in different places.

Columns and labels:
[1] = tested on: Giardia duodenalis trophozoites, ATCC203333; test: G. duodenalis trophozoite proliferation, ATCC203333 (metronidazole sensitive); conditions: for Class of Interaction / ΣFIC50: in combination with ascorbic acid
[2] = tested on: Giardia duodenalis trophozoites; test: G. duodenalis trophozoite proliferation (strain not specified or several strains together); type: cell-based; conditions: for inhibition at 300 µg/mL: Giardia duodenalis; for inhibition at 300 µg/mL / inhibition of trophozoite proliferation: pure compounds at 300 μg/mL; for IC50: compound alone, over the different strains
[3] = tested on: Giardia duodenalis trophozoites, sheep S2 strain; test: G. duodenalis trophozoite proliferation, sheep S2 strain; conditions: for IC50 / IC50 Single Compound: compound alone; for Class of Interaction / ΣFIC50: in combination with ascorbic acid
[4] = tested on: Giardia duodenalis trophozoites, ATCC PRA-251; test: G. duodenalis trophozoite proliferation, ATCC PRA-251 (metronidazole resistant); conditions: for IC50: read-out: IC50 Single Compound; for inhibition of the metronidazole resistant strain (in words): pure compounds at 300 μg/mL; for Class of Interaction / ΣFIC50: in combination with ascorbic acid
human dermal fibroblast = conditions: for Toxicity Compound/ascorbic acid combination HDF: in combination with ascorbic acid
Artemia nauplii = conditions: for Toxicity Compound Alone ALA: 24 hours exposure; for Toxicity Compound/ascorbic acid combination ALA: in combination with ascorbic acid
Clostridium perfringens = test: microbe, parasite or virus in culture; type: cell-based
Bacillus anthracis = test: microbe, parasite or virus in culture; type: cell-based
[5] = tested on: Artemia franciscana nauplii; conditions: in vivo
[6] = Giardia duodenalis, ATCC203333, read-out: IC50 Single Compound
[7] = metronidazole sensitive G. duodenalis strain
[8] = Giardia duodenalis, in Ovis aries, read-out: IC50 Single Compound, Sheep S2 Strain
[9] = compound alone, 24 hours exposure
[10] = read-out: IC50 Single Compound, ATCC203333, compound alone
[11] = all three G. duodenalis strains
[12] = read-out: IC50 Single Compound, Sheep S2 Strain

Compound | Toxicity Compound Alone HDF (human dermal fibroblast; [9]) | Toxicity Compound/ascorbic acid combination HDF (human dermal fibroblast) [µg/mL] | Class of Interaction ([1]; ATCC203333) | ΣFIC50 ([1]; ATCC203333) | Toxicity Compound Alone ALA (Artemia nauplii) | Toxicity Compound/ascorbic acid combination ALA (Artemia nauplii) [µg/mL] | inhibition of trophozoite proliferation [2, 11] | IC50 Single Compound ([3]; Sheep S2 Strain) [µg/mL] | Class of Interaction ([3]; Sheep S2 Strain) | ΣFIC50 ([3]; Sheep S2 Strain) | Class of Interaction ([4]; ATCC PRA-251) | ΣFIC50 ([4]; ATCC PRA-251) | other results
O=C1O[C@H]([C@@H](O)CO)C(O)=C1O [Ascorbic acid, ascorbic acid] |  |  |  |  |  |  |  |  |  |  |  |  | IC50 [1, 6]: 1910 µg/mL and 10.8 mM; inhibition at 300 µg/mL [2, 7]: ~15%; IC50 [3, 8]: 1870 µg/mL and 10.6 mM; IC50 ([4]; Giardia duodenalis): 2850 µg/mL and 16.2 mM; inhibition of the metronidazole resistant strain (in words) [4]: ineffective inhibitors
O=C(O)C[C@H](C(=O)O)[C@H]1c2c(cc(O)c(O)c2O)C(=O)O[C@@H]1C(=O)O [Chebulic acid, chebulic acid] | 380 µg/mL | 375 | Additive | 0.6 | 165 µg/mL | 224 | ~40% | 1283 (≈ 3.6 mM) | Additive | 0.56 | Additive | 0.52 | IC50 Single Compound ([1]; ATCC203333, compound alone): 985 µg/mL (≈ 2.76 mM); IC50 [1, 10]: 2.76 mM; IC50 [3, 12]: 3.6 mM; IC50 Single Compound ([4]; ATCC PRA-251, compound alone): 1220 µg/mL (≈ 3.42 mM); IC50 ([4]; ATCC PRA-251, compound alone): 3.42 mM
O=C(O)[C@H]1O[C@@H](Oc2cccc(O)c2O)[C@H](O)[C@@H](O)[C@@H]1O [DPGA, 2,3-dihydroxyphenyl B-D-glucopyranosiduronic acid] | CND | >500 | Synergy | 0.18 | CND | >500 | 100% | 47 (≈ 0.156 mM) | Synergy | 0.11 | Synergy | 0.18 | IC50 Single Compound ([1]; ATCC203333, compound alone): 38 µg/mL (≈ 0.126 mM); IC50 [1, 10]: 0.126 mM; ratios producing synergistic inhibition (isobologram) ([2]; DPGA:ascorbic acid combinations, metronidazole sensitive strains): ≤ 60 % DPGA; IC50 as share of the IC50 of ascorbic acid ([2]; components tested separately): approximately 5%; potency relative to ascorbic acid ([2]; components tested separately): ~20 times; IC50 [2]: 38 to 72 µg/mL; IC50 ([2]; read-out: IC50): ≥ 0.126 mM and 0.126 to 0.238 mM; IC50 [3, 12]: 0.156 mM; IC50 Single Compound ([4]; ATCC PRA-251, compound alone): 72 µg/mL (≈ 0.238 mM); ratios with synergistic interaction (isobologram) ([4]; DPGA:ascorbic acid combinations, metronidazole resistant strain): 30-50 % DPGA; IC50 ([4]; ATCC PRA-251, compound alone): 0.238 mM
O=C(O)c1cc(O)c(O)c(O)c1 [Gallic acid, gallic acid] |  |  | Synergy | 0.38 | 132 µg/mL | 147 |  | 1156 (≈ 6.8 mM) | Synergy | 0.15 | Synergy | 0.32 | Toxicity Compound Alone HDF (human dermal fibroblast; human, 24 h): 320 µg/mL; IC50 [1, 6]: 1370 µg/mL and 8.04 mM; inhibition at 300 µg/mL [2, 11]: ~50%; ratios inducing synergistic responses (isobologram) ([2]; gallic acid:ascorbic acid combinations, all three strains): 30-60 % gallic acid; IC50 [3, 8]: 1150 µg/mL and 6.79 mM; IC50 ([4]; Giardia duodenalis): 1260 µg/mL and 7.38 mM
O=C1O[C@@H]([C@H](O)[C@H](O)CO)[C@@H](O)[C@H]1O [Glucohepatonic acid lactone, glucohepatonic acid-1,4-lactone] | CND | >500 | Independent | 1.57 | CND | >500 |  | 1746 (≈ 8.39 mM) | independent (independent (ΣFIC50 > 1.0-4.0)) | 1.19 | Independent | 1.25 | IC50 Single Compound ([1]; ATCC203333, compound alone): 2255 µg/mL (≈ 10.8 mM); IC50 [1, 10]: 12.8 mM; inhibition of trophozoite proliferation [2, 7]: ~30%; IC50 [3, 12]: 9.91 mM; IC50 Single Compound ([4]; ATCC PRA-251, compound alone): 3536 µg/mL (≈ 17 mM); inhibition of the metronidazole resistant strain (in words) [4]: ineffective inhibitors; IC50 ([4]; ATCC PRA-251, compound alone): 20.1 mM
O=C1O[C@H](CO)[C@@H](O)[C@H](O)[C@H]1O [Gluconolactone, gluconolactone] |  |  |  |  | CND |  | did not significantly affect the growth |  |  |  |  |  | Toxicity Compound Alone HDF (human dermal fibroblast): CND
Cc1cc(OCCCC(C)(C)C(=O)O)c(C)cc1O [HMDP, 5-(4-hydroxy-2,5-dimethylphenoxy)-2,2-dimethyl-pentanoic acid] | CND | >500 | Additive | 0.81 | CND | >500 |  |  | Additive | 0.69 | Independent | 1.1 | IC50 [1, 6]: 1580 µg/mL and 5.96 mM; inhibition at 300 µg/mL [2, 11]: ~20%; IC50 [3, 8]: 1840 µg/mL and 6.89 mM; IC50 ([4]; Giardia duodenalis): 2030 µg/mL and 7.63 mM
c1ncc2[nH]cnc2n1 [Purine, purine] |  |  |  |  | CND |  | did not significantly affect the growth |  |  |  |  |  | Toxicity Compound Alone HDF (human dermal fibroblast): CND
O=C(O)[C@]1(O)C[C@@H](O)[C@@H](O)[C@H](O)C1 [Quinic acid, quinic acid] |  |  | Additive | 0.73 | CND | >500 |  |  | Additive | 0.51 | Additive | 0.95 | Toxicity Compound Alone HDF (human dermal fibroblast): CND; IC50 [1, 6]: 1430 µg/mL and 7.43 mM; inhibition at 300 µg/mL [2, 11]: ~30%; IC50 [3, 8]: 1170 µg/mL and 6.1 mM; IC50 ([4]; Giardia duodenalis): 1760 µg/mL and 9.13 mM
O=C1O[C@H](CO)[C@@H](O)[C@H]1O [Ribolactone, ribonolactone] | CND |  |  |  | CND |  | did not significantly affect the growth |  |  |  |  |  | 
CC1(C)S[C@@H]2[C@H](NC(=O)[C@H](N)c3ccccc3)C(=O)N2[C@H]1C(=O)O [ampicillin] |  |  |  |  |  |  |  |  |  |  |  |  | zone of inhibition at 10 µg/disc (Clostridium perfringens; Clostridium perfringens, read-out: zones of inhibition): 13 ± 1 mm; zone of inhibition at 10 µg/disc (Bacillus anthracis; Bacillus anthracis, read-out: zones of inhibition): 10 ± 0.7 mm
[K+].[K+].[O]=[Cr](=[O])([O-])[O][Cr](=[O])(=[O])[O-] [potassium dichromate, Potassium dichromate, reference compound] | 42 µg/mL |  |  |  | 37 µg/mL |  |  |  |  |  |  |  | mortality [5]: 100%; onset of nauplii death (time of exposure) [5]: ≤ 3 h
eujavonic acid | CND | >500 | Additive | 0.64 | CND | >500 | ~20% | 1438 | Additive | 0.58 | Additive | 0.72 | IC50 Single Compound ([1]; ATCC203333, compound alone): 1683 µg/mL; IC50 [1, 10]: 7.07 mM; IC50 [3, 12]: 6.04 mM; IC50 Single Compound ([4]; ATCC PRA-251, compound alone): 1850 µg/mL; IC50 ([4]; ATCC PRA-251, compound alone): 7.77 mM
penicillin |  |  |  |  |  |  |  |  |  |  |  |  | zones of inhibition (Clostridium perfringens; 10 μL extract per 6 mm disc, penicillin 2 μg, ampicillin 10 μg, mean ± SEM): 12.3±0.3 mm; zones of inhibition (Bacillus anthracis; 10 μL extract per 5 mm disc, penicillin 2 μg, ampicillin 10 μg, mean ± SEM): 8.3±0.6 mm
